Assay [1] addresses CDK2;CDK1 (human) (UniProt P24941). As to the kind of experiment: Cell-Based Assay.
Assay [2] has as its target CDK2 (human) (UniProt P24941). The assay is described as follows: Enzyme Assay.
For assay [3], the target named is CDK2 (human) (UniProt P24941). As to the kind of experiment: Enzyme Assay. The source holds these as a separate data set.

Several values for one entry are separate records, joined by “and”; a condition that tells them apart may be missing. Equal entries are not always repeated.

Usually GI50 stands for the concentration that inhibits growth by half. Low values mean greater sensitivity of the cells, high ones lower sensitivity of the cells. As for `CC(=O)N[C@H]1CC[C@H](Nc2nc(NCc3ccc(-c4cccc(F)c4)cc3)c3ncn(C(C)C)c3n2)CC1`, the GI50 in assay [1] (hela-s3) is 0.07 µM and 0.2 µM. By IC50 is commonly meant the concentration needed to halve the response being measured. A low value points to inhibition by little substance. In assay [2], `CC(=O)N[C@H]1CC[C@H](Nc2nc(NCc3ccc(-c4ccc(F)cc4)cc3)c3ncn(C(C)C)c3n2)CC1` returned an IC50 of over 10 µM.

On to `CC(=O)N[C@@H](C)CNc1nc(NCc2ccc(-c3ccccc3)cc2)c2ncn(C(C)C)c2n1`, for which the values for the IC50 in assay [3] and in assay [2] were over 10 µM and at least 10 µM, respectively. In assay [2], `CC(C)n1cnc2c(NCc3ccc(-c4ccccc4)cc3)nc(NC3(CO)CCCC3)nc21` came in with an IC50 of over 10 µM. Still for that read-out and setting: under `CC(=O)N[C@H]1CC[C@H](Nc2nc(NCc3ccc(-c4ccc(F)c(Cl)c4)cc3)c3ncn(C(C)C)c3n2)CC1` stands over 10 µM. Take `CC[C@H](CO)Nc1nc(NCc2ccc(-c3cccc(NC(C)=O)c3)cc2)c2ncn(C(C)C)c2n1`: in assay [2], the IC50 was over 10 µM. Take `CC(=O)N[C@H]1CC[C@H](Nc2nc(NCc3ccc(-c4ccc(C(=O)O)cc4)cc3)c3ncn(C(C)C)c3n2)CC1`: the IC50 in assay [3] and in assay [2] was over 10 µM each time. `CC(=O)N[C@H]1CC[C@H](Nc2nc(NCc3ccc(-c4ccc(Cl)cc4)cc3)c3ncn(C(C)C)c3n2)CC1` displayed an IC50 in assay [2] of over 10 µM. For the molecule `CC(C)n1cnc2c(NCc3ccc(-c4ccccc4)cc3)nc(N[C@H]3CCCC[C@H]3NC(=O)Nc3ccccc3)nc21`, the concentration for half-maximal inhibition (IC50) in assay [3] and in assay [2] was over 10 µM each time. As for `CC(C)n1cnc2c(NCc3ccc(-c4cccc(F)c4)cc3)nc(N[C@H]3CC[C@H](N)CC3)nc21`, the GI50 in assay [1] (hela-s3) is 0.05 µM and 0.03 µM. As for `CC(=O)N[C@H]1CCCC[C@@H]1Nc1nc(NCc2ccc(-c3ccccc3)cc2)c2ncn(C(C)C)c2n1`, the IC50 in assay [3] and in assay [2] was over 10 µM each time. For `CC(=O)C1CCN(c2nc(NCc3ccc(-c4ccccc4)cc3)c3ncn(C(C)C)c3n2)CC1`, the GI50 in assay [1] (hela-s3) was 3 µM and 5 µM. Molecule `CC(=O)N[C@H]1CC[C@H](Nc2nc(NCc3ccc(-c4ccc(C)cc4)cc3)c3ncn(C(C)C)c3n2)CC1` came in with an IC50 in assay [2] of over 10 µM. In assay [1] (adr-res), `CC(C)n1cnc2c(NCc3ccc(-c4ccccc4)cc3)nc(N[C@H]3CC[C@H](O)CC3)nc21` showed a GI50 of 0.03 µM. The IC50 in assay [2] was over 10 µM. The molecule `COC(=O)c1ccc(-c2ccc(CNc3nc(N[C@H]4CC[C@H](NC(C)=O)CC4)nc4c3ncn4C(C)C)cc2)cc1` came in with a half-inhibitory concentration (IC50) in assay [2] of over 10 µM. With `CC(=O)N[C@H]1CC[C@H](Nc2nc(NCc3ccc(-c4ccccc4)nc3)c3ncn(C(C)C)c3n2)CC1`, the GI50 in assay [1] (h226) stood at 0.052 µM. In other words, the double-digit nanomolar range.
